The text below walks through data of ChEMBL document CHEMBL3745650, “Anti-inflammatory properties of quebecol and its derivatives” (Bioorg Med Chem Lett, 2016).

A short description of data set [1]: Cytotoxicity against PMA-differentiated human U937 macrophages assessed as reduction in cell viability after 24 hrs by MTT assay. The format is cell-based. To be noted: u-937, 24 h. In general terms: Formazan colour is commonly taken as a measure of viable cells.
The nature of data set [2]: Antiinflammatory activity in PMA-differentiated human U937 cells assessed as inhibition of LPS-stimulated IL-6 secretion at 500 uM preincubated for 2 hrs followed by LPS-stimulation measured after 24 hrs by ELISA relative to control. The format is functional. To be noted: U-937. In general terms: ELISA stands for enzyme-linked immunosorbent assay.
A short description of data set [3]: Antiinflammatory activity in PMA-differentiated human U937 cells assessed as inhibition of LPS-stimulated IL-6 secretion at 250 uM preincubated for 2 hrs followed by LPS-stimulation measured after 24 hrs by ELISA relative to control. The format is functional. The conditions noted are these: U-937.
Data set [4] in a line: Antiinflammatory activity in PMA-differentiated human U937 cells assessed as inhibition of LPS-stimulated IL-6 secretion at 125 uM preincubated for 2 hrs followed by LPS-stimulation measured after 24 hrs by ELISA relative to control. The format is functional. To be noted: U-937.
Data set [5] in a line: Antiinflammatory activity in PMA-differentiated human U937 cells assessed as inhibition of LPS-stimulated IL-8 secretion at 500 uM preincubated for 2 hrs followed by LPS-stimulation measured after 24 hrs by ELISA relative to control. The data set is classed as functional. To be noted: U-937.
Data set [6] in a line: Antiinflammatory activity in PMA-differentiated human U937 cells assessed as inhibition of LPS-stimulated IL-8 secretion at 250 uM preincubated for 2 hrs followed by LPS-stimulation measured after 24 hrs by ELISA relative to control. The data set is classed as functional. The conditions noted are these: U-937.
Data set [7] can be described thus: Antiinflammatory activity in PMA-differentiated human U937 cells assessed as inhibition of LPS-stimulated IL-8 secretion at 125 uM preincubated for 2 hrs followed by LPS-stimulation measured after 24 hrs by ELISA relative to control. The data set is classed as functional. To be noted: U-937.
Data set [8] can be described thus: Antiinflammatory activity in PMA-differentiated human U937 cells assessed as inhibition of LPS-stimulated IL-1beta secretion at 500 uM preincubated for 2 hrs followed by LPS-stimulation measured after 24 hrs by ELISA relative to control. To be noted: U-937. The data set is classed as functional.
Data set [9] can be described thus: Antiinflammatory activity in PMA-differentiated human U937 cells assessed as inhibition of LPS-stimulated IL-1beta secretion at 250 uM preincubated for 2 hrs followed by LPS-stimulation measured after 24 hrs by ELISA relative to control. The data set is classed as functional. The conditions noted are these: U-937.
Data set [10] can be described thus: Antiinflammatory activity in PMA-differentiated human U937 cells assessed as inhibition of LPS-stimulated IL-1beta secretion at 125 uM preincubated for 2 hrs followed by LPS-stimulation measured after 24 hrs by ELISA relative to control. The conditions noted are these: U-937. The format is functional.
The nature of data set [11]: Antiinflammatory activity in PMA-differentiated human U937 cells assessed as inhibition of LPS-stimulated TNF-alpha secretion at 500 uM preincubated for 2 hrs followed by LPS-stimulation measured after 24 hrs by ELISA relative to control. The conditions noted are these: U-937. The format is functional.
Data set [12] is described as follows: Antiinflammatory activity in PMA-differentiated human U937 cells assessed as inhibition of LPS-stimulated TNF-alpha secretion at 250 uM preincubated for 2 hrs followed by LPS-stimulation measured after 24 hrs by ELISA relative to control. The data set is classed as functional. To be noted: U-937.
The nature of data set [13]: Antiinflammatory activity in PMA-differentiated human U937 cells assessed as inhibition of LPS-stimulated TNF-alpha secretion at 125 uM preincubated for 2 hrs followed by LPS-stimulation measured after 24 hrs by ELISA relative to control. The conditions noted are these: U-937. The format is functional.
The nature of data set [14]: Antiinflammatory activity in human U937-3xkB-luc cells assessed as inhibition of LPS-induced NFkappaB activation at 100 uM preincubated for 30 mins followed by LPS-stimulation measured after 6 hrs by luciferase assay relative to control. The format is functional. The conditions noted are these: U-937.
Data set [15] is described as follows: Antiinflammatory activity in human U937-3xkB-luc cells assessed as inhibition of LPS-induced NFkappaB activation at 20 uM preincubated for 30 mins followed by LPS-stimulation measured after 6 hrs by luciferase assay relative to control. The format is functional. To be noted: U-937.
Data set [16] in a line: Antiinflammatory activity in human U937-3xkB-luc cells assessed as inhibition of LPS-induced NFkappaB activation at 5 uM preincubated for 30 mins followed by LPS-stimulation measured after 6 hrs by luciferase assay relative to control. To be noted: U-937. The format is functional.
Data set [17] can be described thus: Antiinflammatory activity in PMA-differentiated human U937 cells assessed as inhibition of LPS-stimulated IL-6 secretion at 62.5 uM preincubated for 2 hrs followed by LPS-stimulation measured after 24 hrs by ELISA relative to control. The format is functional. To be noted: U-937.
Data set [18] can be described thus: Antiinflammatory activity in PMA-differentiated human U937 cells assessed as inhibition of LPS-stimulated IL-8 secretion at 62.5 uM preincubated for 2 hrs followed by LPS-stimulation measured after 24 hrs by ELISA relative to control. To be noted: U-937. The data set is classed as functional.
Data set [19] can be described thus: Antiinflammatory activity in PMA-differentiated human U937 cells assessed as inhibition of LPS-stimulated IL-1beta secretion at 62.5 uM preincubated for 2 hrs followed by LPS-stimulation measured after 24 hrs by ELISA relative to control. The format is functional. The conditions noted are these: U-937.
The nature of data set [20]: Antiinflammatory activity in PMA-differentiated human U937 cells assessed as inhibition of LPS-stimulated TNF-alpha secretion at 62.5 uM preincubated for 2 hrs followed by LPS-stimulation measured after 24 hrs by ELISA relative to control. The data set is classed as functional. To be noted: U-937.

As a reminder, the inhibition is the drop in the measured response relative to a control, in per cent.

Regarding `COc1cc(CCO)ccc1O`, in data set [1], the Activity is > 1000 µM. Besides, the inhibition at 500 µM came out at 0% in [2], 0% in data set [5], 11.3% in data set [8] and 0% in data set [11]. Also, the inhibition at 250 µM in data set [3] stood at 0%; in [6] it was 0%; in data set [9], 17.4%; in data set [12], 5.2%. For the same compound, the inhibition at 125 µM was 0% in data set [4], 0% in data set [7], 24.4% in data set [10] and 6% in [13]. For the same compound, the inhibition at 100 µM in data set [14] was 8.3%. In data set [15], the inhibition at 20 µM came to 2.6%. The inhibition at 5 µM in data set [16] was 0%.
Consider `COc1cc(CC(=O)O)ccc1O` [HOMOVANILLIC ACID], for which the Activity in data set [1] was > 1000 µM. The inhibition at 500 µM in data set [2] worked out at 0%; in data set [5], 0%; in data set [8], 3.6%; in data set [11], 0%. Besides, the inhibition at 250 µM was 0% in data set [3], 0% in [6], 5.7% in data set [9] and 0% in [12]. Further, the inhibition at 125 µM in data set [4] was 0%; in data set [7], 0%; in [10], 5.2%; in data set [13], 0%. For the same compound, the inhibition at 100 µM in [14] worked out at 22.9%. For the same compound, the inhibition at 20 µM in data set [15] was 16.3%. The inhibition at 5 µM in data set [16] is 24%.
Take `COc1cc(Cc2ccc(O)c(OC)c2)ccc1O`: the Activity in [1] is 500 µM. Moreover, the inhibition at 500 µM is 95.3% in data set [2], 26.9% in data set [5], 49.2% in data set [8] and 72.2% in data set [11]. In addition, the inhibition at 250 µM in [3] came out at 62.3%; in data set [6], 15%; in data set [9], 33.4%; in [12] it was 15%. For the same compound, the inhibition at 125 µM in data set [4] came out at 4.3%; in data set [7], 7.1%; in data set [10], 3%; in data set [13], 7.6%. Moreover, in data set [14], the inhibition at 100 µM was determined as 43.1%. Also, the inhibition at 20 µM in data set [15] was found to be 28.9%. Besides, the inhibition at 5 µM in data set [16] was determined as 11%.
Regarding `CCOC(=O)C(=C(c1ccc(O)c(OC)c1)c1ccc(O)c(OC)c1)c1ccc(O)c(OC)c1`, the Activity in data set [1] is 62.5 µM. Moreover, the inhibition at 500 µM in data set [2] came to 99.9%; in [5], 99.9%; in data set [8], 83.9%; in [11], 100%. Moreover, the inhibition at 250 µM in [3] amounted to 99.9%; in data set [6], 99.7%; in [9], 85.2%; in data set [12] it was 100%. Besides, the inhibition at 125 µM in data set [4] was 97.2%; in data set [7], 99.5%; in data set [10], 26.2%; in [13], 92.3%. Further, the inhibition at 62.5 µM in data set [17] was 27.3%; in [18] it was 22.7%; in [19], 0%; in data set [20], 15.9%. Also, the inhibition at 100 µM in data set [14] amounted to 79.9%. Also, the inhibition at 20 µM in data set [15] was found to be 15.9%. For the same compound, in data set [16], the inhibition at 5 µM was found to be 12.8%.
Take `CCOC(=O)C(c1ccc(O)c(OC)c1)C(c1ccc(O)c(OC)c1)c1ccc(O)c(OC)c1` (stereo unspecified): in [1], the Activity is 125 µM. Besides, the inhibition at 500 µM was determined as 99.9% in data set [2], 99.9% in data set [5], 91.4% in data set [8] and 100% in data set [11]. Moreover, the inhibition at 250 µM in data set [3] came out at 99.8%; in data set [6] it was 95%; in data set [9] it was 10.9%; in data set [12], 100%. Moreover, the inhibition at 125 µM in [4] came out at 89.9%; in data set [7], 94.9%; in [10], 1.2%; in data set [13], 15.7%. In addition, the inhibition at 62.5 µM stood at 4.8% in [17], 0% in data set [18], 0% in data set [19] and 8.5% in data set [20]. The inhibition at 100 µM in data set [14] was 74.7%. Besides, in data set [15], the inhibition at 20 µM was 31.2%. For the same compound, in [16], the inhibition at 5 µM came to 24%.
Consider `CCOC(=O)Cc1ccc(O)c(OC)c1`, for which the Activity in data set [1] is > 1000 µM. The inhibition at 500 µM in data set [2] worked out at 0%; in [5], 0%; in [8] it was 0%; in data set [11] it was 6.9%. The inhibition at 250 µM was 0% in data set [3], 0% in data set [6], 5.7% in data set [9] and 1.1% in data set [12]. Also, the inhibition at 125 µM in data set [4] came to 0%; in data set [7], 0%; in data set [10] it was 2.7%; in data set [13] it was 0.1%. For the same compound, the inhibition at 100 µM in data set [14] came to 14.6%. The inhibition at 20 µM in [15] was found to be 21.8%. Further, the inhibition at 5 µM in [16] was determined as 13.6%.
In the case of `COc1cc(C(O)C(=O)O)ccc1O` (stereo unspecified), the Activity in data set [1] is > 1000 µM. For the same compound, the inhibition at 500 µM stood at 0% in data set [2], 0% in [5], 7.2% in [8] and 0% in data set [11]. For the same compound, the inhibition at 250 µM was determined as 0% in [3], 0% in data set [6], 8% in data set [9] and 4.6% in [12]. Also, the inhibition at 125 µM in data set [4] is 0%; in [7], 0%; in [10], 7.4%; in data set [13], 0%. For the same compound, in data set [14], the inhibition at 100 µM was 16.3%. Further, the inhibition at 20 µM in [15] is 5.7%. In addition, the inhibition at 5 µM in data set [16] was 0%.
Regarding `CCOC(=O)C(O)c1ccc(O)c(OC)c1` (stereo unspecified), in [1], the Activity is > 1000 µM. In addition, the inhibition at 500 µM in data set [2], in data set [5], in [8] and in [11] was 0% in each case. Also, the inhibition at 250 µM in [3], in [6], in data set [9] and in data set [12] was 0% each time. Besides, the inhibition at 125 µM stood at 0% in [4], 0% in [7], 4% in data set [10] and 0% in [13]. The inhibition at 100 µM in data set [14] is 0%. The inhibition at 20 µM in data set [15] worked out at 6.5%. The inhibition at 5 µM in [16] was determined as 16.4%.
